Measured values published in article PMC8658022, “Towards Property Profiling: SYNTHESIS and SAR Probing of New Tetracyclic Diazaphenothiazine Analogues” (International Journal of Molecular Sciences, 2021).
Values after ≈ are worked out from the molar mass of the structure shown.

Columns and labels:
[1] = tested on: methicillin-resistant S. aureus SA 630; test: broth dilution micro-method MIC, MRSA SA 630; format: cell-based; conditions: Staphylococcus aureus, clinical isolate, 24 h, 37 °C
Procedure: (§1) The synthesized compounds were evaluated for in vitro antibacterial activity against representatives of multidrug-resistant bacteria and clinical isolates of methicillin-resistant Staphylococcus aureus (MRSA) 63718, SA 630, and SA 3202 that were obtained from the National Institute of Public Health (Prague, Czech Republic). S. aureus ATCC 29213 was used as a reference and quality control strain. Ampicillin (Sigma, St. Louis, MO, USA) was employed as the standard. Prior to testing, each strain was passaged onto nutrient agar (Oxoid, Basingstoke, UK) with 5% of bovine blood, and bacterial inocula were prepared by suspending a small portion of a bacterial colony in sterile phosphate-buffered saline (pH 7.2–7.3). The cell density was adjusted to 0.5 McFarland units using a densitometer (Densi-La-Meter, LIAP, Riga, Latvia). This inoculum was diluted to reach the final concentration of bacterial cells 5 × 10^5 CFU/mL in the wells. […] The final concentrations of the evaluated compounds ranged from 256 to 0.008 μg/mL. The broth dilution micro-method, modified according to the NCCLS (National Committee for Clinical Laboratory Standards) guidelines in Mueller–Hinton (MH) broth, was used to determine the minimum inhibitory concentration (MIC). Drug-free controls, sterility controls, and controls consisting of MH broth and DMSO alone were included. The determination of results was performed visually after 24 h of static incubation in the darkness at 37 °C in an aerobic atmosphere. Each experiment was repeated at least three times.

[2] = tested on: NHDF (normal human dermal fibroblasts); test: WST-1 cell proliferation assay, NHDF normal cells; format: cell-based; conditions: normal cell line, 72 h exposure, mean ± std
Procedure: (§2) Compounds were evaluated for their antiproliferative activity using […] cultured cell lines: A549 (human lung carcinoma, ATCC, Manassas, VA, USA), SNB-19 (human glioblastoma, DSMZ, German Collection of Microorganisms and Cell Cultures), T-47D (human breast cancer, ATCC, Manassas, VA, USA) and NHDF (normal human dermal fibroblasts, ATCC, Manassas, VA, USA). The cultured cells were kept at 37 °C and 5% CO2. The cells were seeded (1 × 10^4 cells/well/100 μL DMEM supplemented with 10% FCS and streptomycin and penicillin) using 96-well plates (Corning). Cells were counted in a hemocytometer (Burker chamber) using a phase contrast Olympus IX50 microscope equipped with Sony SSC-DC58 AP camera and Olympus DP10 digital camera.
(§3) The antiproliferative effect of the compounds exerted on cancer and normal cells was determined using the Cell Proliferation Reagent WST-1 assay (Roche Molecular Biochemicals Mannheim, Germany). This assay is based on a colorimetric method using the enzymatic ability of viable cells to cause the bright red-colored stable tetrazolium monosodium salt [2-(4-iodophenyl)-3-(4-nitrophenyl)-5-(2,4-disulfophenyl)–2H-tetra-zolium] to transform into the dark red-colored soluble formazan. […] An increase in the amount of formazan dye formed correlated with the number of metabolically active cells in the culture. The formazan dye produced by metabolically active cells was quantified by absorbance reading at appropriate wavelengths. The examined cells were exposed to the tested compounds (1 mg/mL DMSO stock) for 72 h at various concentrations (0.1 μg/mL–100 μg/mL). The control was performed in order to eliminate the DMSO effect at the concentration used. Cell cultures were incubated with WST-1 (10 μL) for 1 h. The absorbance of the samples was measured against a background control at 450 nm using a microplate reader with a reference wavelength at 600 nm. The obtained results are expressed as the means of at least two independent experiments performed in triplicate. The antiproliferative activity of the tested compounds were compared to cisplatinum. The values of IC50 (a concentration of a compound that is required for 50% inhibition) were calculated from the dose-response relationship with respect to control.

[3] = tested on: T47D (human breast cancer); test: WST-1 cell proliferation assay, T47D; format: cell-based; conditions: 72 h exposure, mean ± std
Procedure: as §2, §3

[4] = tested on: methicillin-resistant S. aureus SA 3202; test: broth dilution micro-method MIC, MRSA SA 3202; format: cell-based; conditions: Staphylococcus aureus, clinical isolate, 24 h, 37 °C
Procedure: as §1

[5] = tested on: Staphylococcus aureus ATCC 29213; test: broth dilution micro-method MIC, S. aureus ATCC 29213; format: cell-based; conditions: ATCC29213, 24 h, 37 °C
Procedure: as §1

[6] = experimentally determined lipophilicity (logPTLC); format: physicochemical; conditions: thin-layer chromatography (TLC)
Source text: In order to examine the lipophilic profile of the investigated compounds, the empirically determined logPTLC parameters (see Table 1) were compared with the theoretically approximated lipophilicity coefficients (clogP) using an ensemble of in silico predictors, e.g., clogP, Molinspiration, Osiris, HyperChem 7.0, Sybyl-X, MarvinSketch 15, ACD/ChemSketch 2015, Dragon 6.0, Kowwin, XlogP3, ChemDraw and ACD/Percepta programs. Subsequently, the deduced clogP parameters were cross-compared with the experimental logPTLC and inter-correlated with each other as presented in Figure 5. A good correlation was obtained (r = 0.94) for the MarvinSketch-made clogP values and the empirical logPTLC was recorded, respectively. […] A quite high inter-correlation was observed among the programs for lipophilicity specification. Obviously, some variations in clogP values resulted from different in silico algorithms (atom/fragment- or descriptor-based) implemented in the programs and/or training data employed in the training step [33].

MRSA isolates = test: broth dilution micro-method MIC, MRSA isolates (pooled statement); format: cell-based; conditions: Staphylococcus aureus; range over three MRSA isolates and both compounds; read-out: MICs against MRSA isolates
Procedure: as §1, with “The determination of results was performed visually after 24 h of static incubation in the darkness at 37 °C in an aerobic atmosphere. Each experiment was repeated at least three times.” left out

[7] = tested on: A549 (human lung carcinoma); test: WST-1 cell proliferation assay, A549; format: cell-based; conditions: mean ± std
Procedure: as §2, §3

[8] = tested on: SNB-19 (human glioblastoma); test: WST-1 cell proliferation assay, SNB-19; format: cell-based; conditions: mean ± std
Procedure: as §2, §3

[9] = tested on: methicillin-resistant S. aureus 63718; test: broth dilution micro-method MIC, MRSA 63718; format: cell-based; conditions: Staphylococcus aureus, clinical isolate, 24 h, 37 °C
Procedure: as §1

[10] = Homo sapiens, A549, 72 h exposure
[11] = Homo sapiens, SNB-19, 72 h exposure

SMILES	MIC [1] [µM]	IC50 ([3]; Homo sapiens, T47D) [µM]	MIC [4] [µM]	MIC [5] [µM]	chromatographic logP [6]	MIC (MRSA isolates) [µM]	IC50 [7, 10] [µM]	IC50 [8, 11] [µM]	MIC [9] [µM]	IC50 ([2]; Homo sapiens, NHDF) [µM]	IC50 [2] [µM]	IC50 [3] [µM]	IC50 ([7]; 72 h exposure) [µM]	IC50 ([8]; 72 h exposure) [µM]
C[n+]1cc2c(c3ccccc31)Nc1ccc(Br)nc1S2 [3b, 9-bromo-5-methyl-12H-quino[3,4-b]pyrido[5,6-e][1,4]thiazinium chloride]	337	5.2 ± 0.4	337	337	4.8	–	23.8 ± 1.7	4.1 ± 0.3	337	0.8 ± 0.05	–	–	–	–
Cc1cc(F)nc2c1Nc1c(c[n+](C)c3ccccc13)S2 [3h, 9-fluoro-5,11-dimethyl-12H-quino[3,4-b]pyrido[5,6-e][1,4]thiazinium chloride]	383	47.7 ± 2.8	383	383	5.72	–	15.4 ± 1	126 ± 14.8	383	28.5 ± 4	–	–	–	–
C[n+]1cc2c(c3ccccc31)Nc1ccc(I)nc1S2 [3f, 9-iodo-5-methyl-12H-quino[3,4-b]pyrido[5,6-e][1,4]thiazinium chloride]	299	128 ± 18.2	299	299	5.09	–	115 ± 10.7	62.5 ± 6.6	299	97.4 ± 6.2	–	–	–	–
C[n+]1cc2c(c3ccccc31)Nc1cccnc1S2 [3a, 5-methyl-12H-quino[3,4-b]pyrido[5,6-e][1,4]thiazinium chloride]	106	46.2 ± 7.1	212	212	3.53	–	70.3 ± 9.8	132 ± 11.6	212	21.1 ± 1.5	–	–	–	–
C[n+]1cc2c(c3ccccc31)Nc1ccc(Cl)nc1S2 [3d, 9-chloro-5-methyl-12H-quino[3,4-b]pyrido[5,6-e][1,4]thiazinium chloride]	381	2.3 ± 0.3	381	381	4.62	–	2 ± 0.3	1.3 ± 0.1	381	7.7 ± 0.5	–	–	–	–
N.N.[Cl][Pt][Cl] [cisplatinum, reference compound]	–	–	–	–	–	–	–	–	–	–	29.9 ± 3.3	9 ± 0.7	3 ± 0.2	16.7 ± 1.3
C[n+]1cc2c(c3ccccc31)Nc1cnccc1S2 [4a, 5-methyl-5H-qujino[3,4-b]pyrido[3,4-e][1,4]thiazinium chloride]	424	36.8 ± 2.1	424	424	2.93	–	30.1 ± 3.4	18.7 ± 1.2	424	7.5 ± 0.2	–	–	–	–
Cc1ccnc2c1Nc1c(c[n+](C)c3ccccc13)S2 [3i, 5,11-dimethyl-12H-quino[3,4-b]pyrido[5,6-e][1,4]thiazinium chloride]	101	18.9 ± 1.4	203	203	4.17	–	69.3 ± 5.3	22.1 ± 1.5	203	0.4 ± 0.07	–	–	–	–
Cc1cc(Cl)nc2c1Nc1c(c[n+](C)c3ccccc13)S2 [3g, 9-chloro-5,11-dimethyl-12H-quino[3,4-b]pyrido[5,6-e][1,4]thiazinium chloride]	> 731	26.7 ± 1.6	> 731	> 731	5.66	–	20 ± 1.6	3.5 ± 0.2	> 731	3.8 ± 0.3	–	–	–	–

Continued by falling MIC [1], values first:

MIC [1] [µM]	IC50 ([3]; Homo sapiens, T47D) [µM]	MIC [4] [µM]	MIC [5] [µM]	chromatographic logP [6]	MIC (MRSA isolates) [µM]	IC50 [7, 10] [µM]	IC50 [8, 11] [µM]	MIC [9] [µM]	SMILES	IC50 ([2]; Homo sapiens, NHDF) [µM]	IC50 [2] [µM]	IC50 [3] [µM]	IC50 ([7]; 72 h exposure) [µM]	IC50 ([8]; 72 h exposure) [µM]
96	8.1 ± 1	193	193	4.2	–	1.7 ± 0.1	6.1 ± 0.4	193	COc1ccc2c(n1)Sc1c[n+](C)c3ccccc3c1N2 [3j, 9-methoxy-5-methyl-12H-quino[3,4-b]pyrido[5,6-e][1,4]thiazinium chloride]	2 ± 0.3	–	–	–	–
45.8 (≈ 16 µg/mL)	–	45.8 (≈ 16 µg/mL)	5.72 (≈ 2 µg/mL)	–	–	–	–	45.8 (≈ 16 µg/mL)	CC1(C)S[C@@H]2[C@H](NC(=O)[C@H](N)c3ccccc3)C(=O)N2[C@H]1C(=O)O [AMP, Ampicillin, reference compound]	–	–	–	–	–
21.1	12.2 ± 1.7	42.1	42.1	4.57	12.5 to 42.1	20.6 ± 1.2	3.4 ± 0.2	42.1	C[n+]1cc2c(c3ccccc31)Nc1cc(Br)cnc1S2 [3c, 10-bromo-5-methyl-12H-quino[3,4-b]pyrido[5,6-e][1,4]thiazinium chloride]	11 ± 1.4	–	–	–	–
12.5	2.8 ± 0.35	25.1	50.2	4.24	12.5 to 42.1	2.1 ± 0.35	0.4 ± 0.08	25.1	C[n+]1cc2c(c3ccccc31)Nc1ccc(F)nc1S2 [3e, 9-fluoro-5-methyl-12H-quino[3,4-b]pyrido[5,6-e][1,4]thiazinium chloride]	1.1 ± 0.14	–	–	–	–
